The values below come from ChEMBL document CHEMBL1153292, “Atropisomeric small molecule Bcl-2 ligands: determination of bioactive conformation” (Bioorg Med Chem Lett, 2009).

As usually defined, the IC50 is the point on the concentration scale where inhibition reaches its midpoint. Higher therefore signals weaker potency in that assay.

In this experiment the target is Apoptosis regulator Bcl-2 (Homo sapiens, UniProt P10415). The experiment can be described thus: Inhibition of GST fused Bcl-2 binding to biotinylated 16 mer BH3 peptide by HTRF-LANCE assay. A general note: In TR-FRET formats the signal depends on donor and acceptor labels being close together.
Sequence of Apoptosis regulator Bcl-2 (P10415 whole entry, the tested form may be a part): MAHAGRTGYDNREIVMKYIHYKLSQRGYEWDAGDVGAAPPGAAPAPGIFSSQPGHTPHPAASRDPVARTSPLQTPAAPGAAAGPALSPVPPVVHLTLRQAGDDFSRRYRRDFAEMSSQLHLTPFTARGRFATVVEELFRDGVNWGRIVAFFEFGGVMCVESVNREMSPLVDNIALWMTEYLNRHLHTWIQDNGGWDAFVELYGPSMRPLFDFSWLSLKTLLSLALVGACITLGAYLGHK
Molecule `Cc1cccc(-n2nc(C(=O)N(c3ccccc3)c3ccccc3)cc2C)c1C(=O)N1Cc2ccccc2C[C@H]1CO` (atropisomer aS) showed an IC50 of 210 nM. The value for `CCCCN(CCCC)C(=O)c1cc(C)n(-c2cccc(C)c2C(=O)N2Cc3ccccc3C[C@H]2CN)n1` was 175 nM. The value for `Cc1cccc(-n2nc(C(=O)N(c3ccccc3)c3ccccc3)cc2C)c1C(=O)N1Cc2ccccc2C[C@@H]1CO` (atropisomer aR; form 1) was 1100 nM. The molecule `Cc1cccc(-n2nc(C(=O)N(c3ccccc3)c3ccccc3)cc2C)c1C(=O)N1Cc2ccccc2C[C@@H]1CO` (atropisomer aR; form 3) registered an IC50 of 390 nM. Against the preceding molecule, the IC50 is about 2.8-fold lower. For `CCCCN(CCCC)C(=O)c1nn(-c2cccc(C)c2C(=O)N2Cc3ccccc3C[C@H]2CN)c(C)c1Cl` the value was 42 nM; for `Cc1cccc(-n2nc(C(=O)N(c3ccccc3)c3ccccc3)cc2C)c1C(=O)N1Cc2ccccc2CC1CO` (configuration not stated), 600 nM; for `Cc1cccc(-n2nc(C(=O)N(c3ccccc3)c3ccccc3)cc2C)c1C(=O)N1Cc2ccccc2C[C@@H]1CO` (atropisomer aR; form 2), 6100 nM.
